“Also recorded” adds a separate entry of the source. Read-outs that look alike come from different tables or passages of the source.
What was measured:
[1] = test system: Sprague-Dawley normoglycemic rat model; design: method as in PMID 24566854; settings: cited from earlier work
[2] = test system: AGE formation (bovine serum albumin, methylglyoxal); assay: In vitro antiglycation assay (BSA-methylglyoxal, AGE fluorescence); type: biochemical
Experimental: Methylglyoxal (14 mM), sodium azide (30 mM) in 0.1 M phosphate buffer, bovine serum albumin (10 mg/mL), and various concentrations of the compounds (prepared in 10% DMSO) were incubated under sterile conditions at 37 °C for 9 days. […] Standard rutin was used as a positive control and percent inhibition of AGE formation in the test sample versus control was calculated by using the following relation: % Inhibition = ⦋1−Fluorescence of test sample/Fluorescence of the control⦌×100

α-glucosidase [3] = biological target: T1, α-glucosidase (Saccharomyces cerevisiae, UniProt P53341); settings: for α-Glucosidase Inhibition IC50 (µM) ± (SEM): pH 6.8, 37 °C, PNP-G 0.7 mM, mean ± SEM, triplicate
T1 sequence (P53341 whole entry): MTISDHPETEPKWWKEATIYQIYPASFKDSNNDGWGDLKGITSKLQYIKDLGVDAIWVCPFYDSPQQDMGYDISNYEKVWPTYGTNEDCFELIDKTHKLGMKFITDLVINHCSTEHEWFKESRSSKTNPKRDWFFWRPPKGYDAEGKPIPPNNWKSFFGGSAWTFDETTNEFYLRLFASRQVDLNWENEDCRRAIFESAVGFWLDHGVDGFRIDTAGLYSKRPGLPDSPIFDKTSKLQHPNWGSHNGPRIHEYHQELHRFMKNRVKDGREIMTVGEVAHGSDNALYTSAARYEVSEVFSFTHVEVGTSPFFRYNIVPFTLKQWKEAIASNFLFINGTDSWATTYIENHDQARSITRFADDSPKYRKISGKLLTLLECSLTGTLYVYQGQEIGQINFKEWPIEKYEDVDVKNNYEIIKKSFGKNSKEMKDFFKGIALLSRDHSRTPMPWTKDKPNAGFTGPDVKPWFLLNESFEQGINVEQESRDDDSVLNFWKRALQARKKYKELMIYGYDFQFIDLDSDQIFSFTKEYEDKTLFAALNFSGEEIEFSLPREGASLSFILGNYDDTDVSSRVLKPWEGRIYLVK
Experimental: (§1) α-Glucosidase inhibitory potential of test compounds was assayed by using 0.1 M phosphate buffer (pH 6.8) at 37 °C. The enzyme (0.2 U/mL) in phosphate buffer was incubated with selected concentrations of test compounds at 37 °C for 15 min. The substrate, p-nitrophenyl-α-D-glucopyranoside (PNP-G) (0.7 mM) was added in each well of 96-well plate and change in absorbance was monitored at 400 nm for 30 min. […] The increase in absorption due to the hydrolysis of PNP-G by α-glucosidase was recorded continuously with the spectrophotometer (Spectra Max, MD, USA.) and percent inhibition was calculated by using the following formula: % Inhibition = 100−⦋OD of test sample/OD of the control×100⦌
(§2) The experiments were performed by using 96-well microplate reader (SpectraMax M2, Molecular Devices, CA, USA) and the results were analyzed by SoftMaxPro 4.8 and MS-Excel. The experiments were repeated in triplicate, and results were presented as means ± SEM. IC50 values were determined by using EZ-FIT, Enzyme kinetics software by Perrella Scientific, Inc., Amherst, MA, USA.

α-glucosidase [4] = biological target: T1, α-glucosidase; assay: biochemical
Experimental: as §1, §2

Row | Molecule | α-glucosidase inhibitory activity (in words) (α-glucosidase [3]) | α-Glucosidase Inhibition IC50 (µM) ± (SEM) (α-glucosidase [3]) | Antiglycation IC50 (µM) ± (SEM) ([2]; 37 °C, 9 days, mean ± SEM) | IC50 (α-glucosidase [4]) | also measured
1 | 17β-hydroxywithanolide K |  |  |  |  | anti-inflammatory activity [1]: potent; antihyperglycemic activity [1]: potent
2 | CC1=C(C)C(=O)O[C@@H]([C@](C)(O)[C@]2(O)CC[C@@]3(O)[C@@H]4C[C@H]5O[C@]56[C@@H](O)C=CC(=O)[C@]6(C)[C@H]4CC[C@]23C)C1 [4β-hydroxywithanolide E] |  |  |  |  | anti-inflammatory activity [1]: potent; antihyperglycemic activity [1]: potent
3 | CC1=C(COC2OC(CO)C(O)C(O)C2O)C(=O)OC(C2(C)OC34CCC2C3(C)CCC2C4CC=C3CC(O)CC(=O)C32C)C1 (stereo not drawn) [Compound 1, 3β-Hydroxy-14R,20R-epoxy-1-oxowitha-5,24-dienolide-27-O-β-D glucopyranoside] | did not possess α-glucosidase inhibitory activity; also recorded: inactive | Inactive |  |  | Antiglycation IC50 (µM) ± (SEM) [2]: Inactive
4 | CC1=C(C)C(=O)O[C@@H]([C@@](C)(O)[C@@]2(O)CC[C@@]3(O)[C@@H]4CC=C5CC=CC(=O)[C@]5(C)[C@H]4CC[C@]23C)C1 [Compound 2, withanolid J] |  |  | Inactive | 683 ± 0.94 µM | 
5 | CC1=C(C)C(=O)O[C@@H]([C@@]2(C)O[C@@]34CC[C@@H]2[C@@]3(C)CC[C@H]2[C@H]4CC=C3C=CCC(=O)[C@@]32C)C1 [Compound 3, coagulin E] | did not possess α-glucosidase inhibitory activity | Inactive | Inactive |  | 
6 | CC1=C(C)C(=O)O[C@@H]([C@@](C)(O)[C@@]2(O)CC[C@@]3(O)[C@@H]4CCC5=CC=CC(=O)[C@]5(C)[C@H]4CC[C@]23C)C1 [Compound 4, withaperuvin C] |  |  | Inactive | 407 ± 4.5 µM | 
7 | CC1=C(CO)C(=O)O[C@@H]([C@@](C)(O)[C@H]2CC[C@@]3(O)[C@@H]4CC=C5C=CCC(=O)[C@]5(C)[C@H]4CC[C@]23C)C1 [Compound 5, 27-hydroxywithanolide I] |  |  | Inactive | 66.7 ± 3.6 µM | 
8 | CC1=C(CO)C(=O)O[C@@H]([C@@](C)(O)[C@@]2(O)CC[C@@]3(O)[C@@H]4CC=C5C=CCC(=O)[C@]5(C)[C@H]4CC[C@]23C)C1 [Compound 6, ajugin E] | did not possess α-glucosidase inhibitory activity | Inactive |  |  | Antiglycation IC50 (µM) ± (SEM) [2]: Inactive
9 | C[C@@H]1O[C@@H](OC[C@H]2O[C@@H](Oc3c(-c4ccc(O)c(O)c4)oc4cc(O)cc(O)c4c3=O)[C@H](O)[C@@H](O)[C@@H]2O)[C@H](O)[C@H](O)[C@H]1O [Rutin, rutin, reference compound] |  |  |  |  | IC50 ([2]; 37 °C, 9 days, mean ± SEM): 288.9 ± 1.84 µM

Source: publication PMC7464911, “Isolation of Antidiabetic Withanolides from Withania coagulans Dunal and Their In Vitro and In Silico Validation” (Biology, 2020)
